Laboratory results from patent US20150073055A1, “USE OF MODAFINIL IN THE TREATMENT OF COCAINE ADDICTS” (DEBREGEAS ET ASSOCIES PHARMA, priority 2012, published 2015).

Tests used:
[1] = estimated; absolute bioavailability was not able to be determined; cited from earlier work
[2] = cited from earlier work
[3] = Solubility in supercritical CO2 or another supercritical solvent; type: physicochemical
Protocol: A method for a novel formulation being the object of the present invention, uses the technology of supercritical CO2 based on the solvent power of CO2 which may be modulated at will according to the pressure and temperature conditions which are applied to it. In the supercritical state (more than 74 bars and 31° C.), CO2 has very particular properties. The obtained fluid is characterized by great diffusivity (of the order of that of gases), which gives it good diffusion capability, and a high density which provides it with significant transport and extraction capability.
A supercritical fluid has another advantage over other solvents: its solubility changes depending on whether its temperature or its pressure is varied. Thus it is possible to ensure that it is a solvent for certain substances at a given instant, and no longer for one at the following instant. This facilitates recovery of the substance which was dissolved.
The following step consists of spraying the dissolved active ingredient on an inert support, and then of studying the grain size of the obtained particles as well as the crystalline form of the same particles.
Different parameters were then modified: • changing the inert support (anhydrous lactose replaced with mannitol), • increasing the loading level up to 30% of active ingredient load, • using S modafinil, • a supercritical solvent other than CO2 . […]

[4] = crystalline white powder, cited from earlier work

Which results are given for `NC(=O)C[S+]([O-])C(c1ccccc1)c1ccccc1` (racemic) [Modafinil, 2-[(diphenylmethyl)sulfinyl]acetamide]?
bioavailability [1]: about 40%; elimination half-life ([2]; in humans): about 14 hours; solubility in CO2 [3]: acceptable solubility; solubility in acetone ([4]; acetone): partly soluble; solubility in methanol ([4]; methanol): partly soluble; solubility in water ([4]; water): practically insoluble

What does the source list for `NC(=O)C[S@@+]([O-])C(c1ccccc1)c1ccccc1` (single isomer, unassigned) [enantiomer R]?
AUC (area under the curve) compared with the racemic form ([2]; after administration): greater AUC (area under the curve) than the racemic form; variability of plasma levels compared with the racemic form ([2]; after administration): less variability of plasma levels
